Measured values taken from patent US8697391B2, “Method of determining cell number or viability using hydroxyethyldisulfide” (priority 2009, dated 2014).

Tests used:
human HCT116 cells [1] = assay type: cell-based
human cells = assay type: cell-based
human HCT116 cells [2] = system: human HCT116 cells
live cells = assay: Toxicity of HEDS to live cells; assay type: cell-based; conditions: live cells reducing HEDS to mercaptoethanol
Excerpt: In a particular embodiment, the assay of the instant invention use hydroxyethyldisulfide (HEDS), a unique non-toxic disulfide, to measure glucose dependent metabolic activity of live cells in vitro. The survival of cells is directly proportional to the conversion of HEDS into mercaptoethanol (ME) by metabolically active live cells. Dead cells fail to convert HEDS into mercaptoethanol. Accordingly, the assays of the instant invention generally encompass contacting cells (e.g., live cells) with HEDS and then monitoring or measuring the amount of extracellular ME. The amount of ME produced from HEDS can be measured in the extracellular medium since ME is extruded out quickly into the extracellular medium. Extracellular ME may be measured, for example, by a dithiobiznitrobenzoic acid (DTNB) assay or High Performance Liquid Chromatography/Electrochemical Detection (HPLC/EC): The cells of the assay may be any cell that produces NADPH, particularly mammalian cells and yeast. The percentage of live cells may be determined by the amount of ME produced.
The ME produced inside the cells is extruded into the extracellular medium. This conversion mediated by the antioxidant system can be measured in the extracellular medium without the need for cellular extract. HPLC electrochemical detector was used to quantify the conversion of HEDS into mercaptoethanol in mammalian cells in tissue culture. […]

Molecule: arsenite
- HEDS conversion (human HCT116 cells [1]): concentration dependent decrease in HEDS conversion
- decrease of the ME peak (HEDS conversion) (human cells): ~70%
- survival of cells (arsenite toxicity) (human HCT116 cells [2]): concentration dependent decrease in the survival

Molecule: OCCSSCCO [HEDS, hydroxyethyldisulfide]
- toxic effect on cells (live cells): no toxic effect on cells
